Source: patent US12091409B2, “Ether linked triazoles as NRF2 activators” (ASTEX THERAPEUTICS LIMITED, priority 2016, dated 2024)
Where a name gives a salt, the structure may show the parent alone.

tested on: NQO1 specific enzyme activity in BEAS-2B cells (marker for NRF2 activation); assay: BEAS-2B NQO1 MTT Assay; assay type: cell-based; conditions: Homo sapiens, BEAS-2B, 48 h, NQO1 specific activity induction, 48 hours with compound
Procedure, shortened: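 Cells plated overnight at 37° C., 5% CO2, then exposed to compound for 48 hours. NQO1 activity read in crude lysates with MTT cocktail as kinetic absorbance at 570 nm over 30 minutes. pEC50 from Delta OD/min versus log concentration with a 3-parameter fit.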

Structure (SMILES) | EC50
Cc1ccc([C@H](OCc2cn(C)nn2)C(C)(C)C(=O)O)cc1CN1Cc2ncccc2O[C@H](C(C)C)C1 [Example 112, (S)-3-(3-(((R)-2-isopropyl-2,3-dihydropyrido[2,3-f][1,4]oxazepin-4(5H)-yl)methyl)-4-methylphenyl)-2,2-dimethyl-3-((1-methyl-1H-1,2,3-triazol-4-yl)-methoxy)propanoic acid, trifluoroacetate] | 10 to 100 nM
CC[C@@H]1CN(Cc2cc([C@@H](OCc3cn(C)nn3)C(C)(C)C(=O)O)ccc2C)Cc2nc(C)ccc2O1 [Example 110, (R)-3-(3-(((R)-2-Ethyl-7-methyl-2,3-dihydropyrido[2,3-f][1,4]oxazepin-4(5H)-yl)methyl)-4-methylphenyl)-2,2-dimethyl-3-((1-methyl-1H-1,2,3-triazol-4-yl)methoxy)propanoic acid trifluoroacetate] | 1 to 10 nM
CC[C@H]1Cc2cccnc2CN(Cc2cc([C@H](OCc3cn(CC)nn3)C(C)(C)C(=O)O)ccc2C)C1 [Example 116, (S)-methyl 3-((1-ethyl-1H-1,2,3-triazol-4-yl)-methoxy)-3-(3-(((S)-6-ethyl-6,7-dihydro-5H-pyrido[2,3-c]azepin-8(9H)-yl)methyl)-4-methylphenyl)-2,2-dimethyl-propanoic acid, trifluoroacetate] | 10 to 100 nM
CCn1cc(CO[C@@H](c2ccc(C)c(CN3C[C@@H](C)Cc4ccccc4S3(=O)=O)c2)C(C)(C)C(=O)O)nn1 [Example 75, (3S)-((1-ethyl-1H-1,2,3-triazol-4-yl)methoxy)-2,2-dimethyl-3-(4-methyl-3-(((S)-4-methyl-1,1-dioxido-4,5-dihydrobenzo[f][1,2]thiazepin-2(3H)-yl)methyl)phenyl)propanoic acid] | 1 to 10 nM
CCCn1cc(CO[C@H](c2ccc(C)c(CN3C[C@@H](C)Cc4ccccc4S3(=O)=O)c2)C(C)(C)C(=O)O)nn1 [Example 88, (R)-2,2-dimethyl-3-(4-methyl-3-(((S)-4-methyl-1,1-dioxido-4,5-dihydrobenzo[f][1,2]thiazepin-2(3H)-yl)methyl)phenyl)-3-((1-propyl-1H-1,2,3-triazol-4-yl)methoxy)propanoic acid] | < 1 nM
CCn1cc(COC(c2ccc(C)c(CN(Cc3ccccc3)S(=O)(=O)c3cccc(C(=O)O)c3)c2)C(C)(C)C(=O)O)nn1 (stereo not drawn) [Example 95, 3-(N-benzyl-N-(5-(2-carboxy-1-((1-ethyl-1H-1,2,3-triazol-4-yl)methoxy)-2-methylpropyl)-2-methylbenzyl)sulfamoyl)benzoic acid] | 100 to 1000 nM
CC[C@@H]1CN(Cc2cc(C(OCc3cn(Cc4ccccc4)nn3)C(C)(C)C(=O)O)ccc2C)S(=O)(=O)c2ccccc2O1 (stereo partly drawn) [Example 7, 3-((1-Benzyl-1H-1,2,3-triazol-4-yl)methoxy)-3-(3-(((R)-4-ethyl-1,1-dioxido-3,4-dihydro-2H-benzo[b][1,4,5]oxathiazepin-2-yl)methyl)-4-methylphenyl)-2,2-dimethylpropanoic acid] | < 1 nM
CCc1cn(Cc2cccc(Cn3cc(COC(c4ccc(C)c(CN5C[C@@H](C)Oc6ccccc6S5(=O)=O)c4)C(C)(C)C(=O)O)nn3)c2)nn1 (stereo partly drawn) [Example 38] | 10 to 100 nM
CC[C@@H]1CN(Cc2cc([C@@H](OCc3cn(CC)nn3)C(C)(C)C(=O)O)ccc2C)Cc2ccccc2O1 [Example 117, (R)-methyl 3-((1-ethyl-1H-1,2,3-triazol-4-yl)-methoxy)-3-(3-(((R)-2-ethyl-2,3-dihydro-benzo[f][1,4]oxazepin-4(5H)-yl)methyl)-4-methylphenyl)-2,2-dimethyl-propanoic acid, trifluoroacetate] | 10 to 100 nM
Cc1ccc(C(OCc2cn(Cc3ccc(Cn4cc(COC(c5ccc(C)c(CN6C[C@@H](C)Oc7ccccc7S6(=O)=O)c5)C(C)(C)C(=O)O)nn4)cc3)nn2)C(C)(C)C(=O)O)cc1CN1C[C@@H](C)Oc2ccccc2S1(=O)=O (stereo partly drawn) [Example 48, (R)-3,3′-(((1,1′-(1,4-phenylenebis(methylene))bis(1H-1,2,3-triazole-4,1-diyl))bis(methylene))bis(oxy))bis(2,2-dimethyl-3-(4-methyl-3-(((R)-4-methyl-1,1-dioxido-3,4-dihydro-2H-benzo[b][1,4,5]oxathiazepin-2-yl)methyl)phenyl)propanoic acid)] | 10 to 100 nM
CCn1cc(CO[C@H](c2ccc(C)c(CN3C[C@@H](C)Cc4ccccc4S3(=O)=O)c2)C(C)(C)C(=O)O)nn1 [Example 84] | < 1 nM
CCn1cc(COC(c2ccc(C)c(CN3CC(C)(C)Oc4ccccc4S3(=O)=O)c2)C(C)(C)C(=O)O)nn1 (stereo not drawn) [Example 12, 3-(3-((4,4-dimethyl-1,1-dioxido-3,4-dihydro-2H-benzo[b][1,4,5]oxathiazepin-2-yl)methyl)-4-methylphenyl)-3-((1-ethyl-1H-1,2,3-triazol-4-yl)methoxy)-2,2-dimethylpropanoic acid] | 1 to 10 nM
CC[C@@H]1CN(Cc2cc([C@@H](OCc3cn(CC)nn3)C(C)(C)C(=O)O)ccc2C)Cc2ncccc2O1 [Example 113, (R)-3-((1-Ethyl-1H-1,2,3-triazol-4-yl)methoxy)-3-(3-(((R)-2-ethyl-2,3-dihydropyrido[2,3-f][1,4]oxazepin-4(5H)-yl)methyl)-4-methylphenyl)-2,2-dimethylpropanoic Acid, Trifluoroacetate] | 10 to 100 nM
CCn1cc(COC(c2ccc(C)c(CN(C3CCCCC3)S(=O)(=O)c3ccc(OC)cc3)c2)C(C)(C)C(=O)O)nn1 (stereo not drawn) [Example 97, 3-(3-(((N-cyclohexyl-4-methoxyphenyl)sulfonamido)methyl)-4-methylphenyl)-3-((1-ethyl-1H-1,2,3-triazol-4-yl)methoxy)-2,2-dimethylpropanoic acid] | 100 to 1000 nM
Cc1ccc(C(OCc2cn(CC3CC[N+]4(CCOCC4)CC3)nn2)C(C)(C)C(=O)O)cc1CN1CC(C)Oc2ccccc2S1(=O)=O (stereo in doubt) [Example 56, 3-((1-(3-Oxa-6-azaspiro[5.5]undecan-6-ium-9-ylmethyl)-1H-1,2,3-triazol-4-yl)methoxy)-2,2-dimethyl-3-(4-methyl-3-(((S)-4-methyl-1,1-dioxido-3,4-dihydro-2H-benzo[b][1,4,5]oxathiazepin-2-yl)methyl)phenyl)propanoate] | 1000 to 10000 nM
Cc1ccc(C(OCc2cn(Cc3cccc(-c4cccc(C(=O)O)c4)c3)nn2)C(C)(C)C(=O)O)cc1CN1C[C@@H](C)Oc2ccccc2S1(=O)=O (stereo partly drawn) [Example 26, 3′-((4-((2-Carboxy-2-methyl-1-(4-methyl-3-(((R)-4-methyl-1,1-dioxido-3,4-dihydro-2H-benzo[b][1,4,5]oxathiazepin-2-yl)methyl)phenyl)propoxy)methyl)-1H-1,2,3-triazol-1-yl)methyl)-[1,1′-biphenyl]-3-carboxylic acid] | 10 to 100 nM
CCn1cc(CO[C@H](c2ccc(C)c(CN3C[C@H](C)Cc4ccccc4S3(=O)=O)c2)C(C)(C)C(=O)O)nn1 [Example 70, (3R)-((1-ethyl-1H-1,2,3-triazol-4-yl)methoxy)-2,2-dimethyl-3-(4-methyl-3-(((R)-4-methyl-1,1-dioxido-4,5-dihydrobenzo[f][1,2]thiazepin-2(3H)-yl)methyl)phenyl)propanoic acid] | 10 to 100 nM

same assay, conditions: NQO1 specific activity induction, 48 hours with compound

Structure (SMILES) | EC50
Cc1ccc(C(OCc2cn(CC(C)C)nn2)C(C)(C)C(=O)O)cc1CN1C[C@@H](C)Oc2ccccc2S1(=O)=O (single isomer, unassigned) [Example 16] | 10 to 100 nM
